From patent publication US20230355626A1, “INHIBITORS OF HUMAN IMMUNODEFICIENCY VIRUS REPLICATION” (VIIV HEALTHCARE UK (NO.5) LIMITED, priority 2020, published 2023)

Columns and labels:
[1] = test system: recombinant NL4-3 virus; test: HIV cell culture assay (antiviral activity, luciferase readout in infected MT-2 cells); format: cell-based; conditions: Human immunodeficiency virus 1, NL43, MT2
Protocol: HIV cell culture assay—MT-2 cells, 293T cells and the proviral DNA clone of NL4-3 virus were obtained from the NIH AIDS Research and Reference Reagent Program. MT-2 cells were propagated in RPMI 1640 media supplemented with 10% heat inactivated fetal bovine serum (FBS), 100 μg/ml penicillin G and up to 100 units/mL streptomycin. The 293T cells were propagated in DMEM media supplemented with 10% heat inactivated FBS, 100 μg/mL penicillin G and 100 μg/mL streptomycin. A recombinant NL4-3 proviral clone, in which a section of the nef gene was replaced with the Renilla luciferase gene, was used to make the reference virus used in these studies. The recombinant virus was prepared through transfection of the recombinant NL4-3 proviral clone into 293T cells using Transit-293 Transfection Reagent from Mirus Bio LLC (Madison, WI). Supernatant was harvested after 2-3 days and the amount of virus present was titered in MT-2 cells using luciferase enzyme activity as a marker by measuring luciferase enzyme activity. Luciferase was quantitated using the EnduRen Live Cell Substrate from Promega (Madison, WI). Antiviral activities of compounds toward the recombinant virus were quantified by measuring luciferase activity in MT-2 cells infected for 4-5 days with the recombinant virus in the presence of serial dilutions of the compound.
The 50% effective concentration (EC50) was calculated by using the exponential form of the median effect equation where (Fa)=1/[1+(ED50/drug conc.)m] (Johnson VA, Byington RT. Infectivity Assay. In Techniques in HIV Research. ed. Aldovini A, Walker BD. 71-76. New York: Stockton Press.1990). Curve fitting and analysis were performed with ActivityBase XE Runner software version 9.1.0.4 using model 203 (ID Business Solutions, LTD, Guildford, UK).

[2] = Compound cytotoxicity, XTT-based colorimetric assay; format: cell-based; conditions: human; uninfected MT2 cells, day 4, XTT assay
Protocol: Compound cytotoxicity and the corresponding CC50 values were determined using the same protocol as described in the antiviral assay except that uninfected cells were used. Cytotoxicity was assessed on day 4 in uninfected MT2 cells by using an XTT (2,3-bis[2-Methoxy-4-nitro-5-sulfophenyl]-2H-tetrazolium-5-carboxyanilide inner salt)-based colorimetric assay (Sigma-Aldrich, St Louis, Mo).

Compound | EC50 [1] [nM] | CC50 at 4 day [2] [nM]
Cn1nc(NS(C)(=O)=O)c2c(Cl)ccc(-n3c([C@H](Cc4cc(F)cc(F)c4)NC(=O)Cn4nc(C(F)F)c5c4C(F)(F)[C@@H]4C[C@H]54)nc4nc(OCC5CC5(F)F)ccc4c3=O)c21 (stereo partly drawn) [Example 33, N-((1S)-1-((3P)-3-(4-chloro-1-methyl-3-(methylsulfonamido)-1H-indazol-7-yl)-7-((2,2-difluorocyclopropyl)methoxy)-4-oxo-3,4-dihydropyrido[2,3-d]pyrimidin-2-yl)-2-(3,5-difluorophenyl)ethyl)-2-((3bS,4aR)-3-(difluoromethyl)-5,5-difluoro-3b,4,4a,5-tetrahydro-1H-cyclopropa[3,4]cyclopenta[1,2-c]pyrazol-1-yl)acetamide] | 0.037 | > 100
COCCCCCOc1ccc2c(=O)n(-c3ccc(Cl)c4c(NS(C)(=O)=O)nn(C)c34)c([C@H](Cc3cc(F)cc(F)c3)NC(=O)Cn3nc(C(F)F)c4c3C(F)(F)[C@@H]3C[C@H]43)nc2n1 (atropisomer, axis not shown; (P)) [Example 17, N-((S)-1-((3P)-3-(4-chloro-1-methyl-3-(methylsulfonamido)-1H-indazol-7-yl)-7-((5-methoxypentyl)oxy)-4-oxo-3,4-dihydropyrido[2,3-d]pyrimidin-2-yl)-2-(3,5-difluorophenyl)ethyl)-2-((3bS,4aR)-3-(difluoromethyl)-5,5-difluoro-3b,4,4a,5-tetrahydro-1H-cyclopropa[3,4]cyclopenta[1,2-c]pyrazol-1-yl)acetamide] | 0.046 | > 100
CN(CCOc1ccc2c(=O)n(-c3ccc(Cl)c4c(NS(C)(=O)=O)nn(C)c34)c([C@H](Cc3cc(F)cc(F)c3)NC(=O)Cn3nc(C(F)F)c4c3C(F)(F)[C@@H]3C[C@H]43)nc2n1)CC(F)(F)F (atropisomer, axis not shown; (P)) [Example 9, N-((S)-1-((3P)-3-(4-chloro-1-methyl-3-(methylsulfonamido)-1H-indazol-7-yl)-7-(2-(methyl(2,2,2-trifluoroethyl)amino)ethoxy)-4-oxo-3,4-dihydropyrido[2,3-d]pyrimidin-2-yl)-2-(3,5-difluorophenyl)ethyl)-2-((3bS,4aR)-3-(difluoromethyl)-5,5-difluoro-3b,4,4a,5-tetrahydro-1H-cyclopropa[3,4]cyclopenta[1,2-c]pyrazol-1-yl)acetamide] | 0.018 | > 100
Cn1nc(NS(C)(=O)=O)c2c(Cl)ccc(-n3c([C@H](Cc4cc(F)cc(F)c4)NC(=O)Cn4nc(C(F)F)c5c4C(F)(F)[C@@H]4C[C@H]54)nc4nc(Oc5ccc(F)cc5F)ccc4c3=O)c21 (atropisomer, axis not shown; (P)) [Example 36, N-((S)-1-((3P)-3-(4-chloro-1-methyl-3-(methylsulfonamido)-1H-indazol-7-yl)-7-(2,4-difluorophenoxy)-4-oxo-3,4-dihydropyrido[2,3-d]pyrimidin-2-yl)-2-(3,5-difluorophenyl)ethyl)-2-((3bS,4aR)-3-(difluoromethyl)-5,5-difluoro-3b,4,4a,5-tetrahydro-1H-cyclopropa[3,4]cyclopenta[1,2-c]pyrazol-1-yl)acetamide] | 0.081 | > 100
Cn1nc(NS(C)(=O)=O)c2c(Cl)ccc(-n3c([C@H](Cc4cc(F)cc(F)c4)NC(=O)Cn4nc(C(F)F)c5c4C(F)(F)[C@@H]4C[C@H]54)nc4nc(OCc5ccncc5)ccc4c3=O)c21 (atropisomer, axis not shown; (P)) [Example 2, N-((S)-1-((3P,3P)-3-(4-chloro-1-methyl-3-(methylsulfonamido)-1H-indazol-7-yl)-4-oxo-7-(pyridin-4-ylmethoxy)-3,4-dihydropyrido[2,3-d]pyrimidin-2-yl)-2-(3,5-difluorophenyl)ethyl)-2-((3bS,4aR)-3-(difluoromethyl)-5,5-difluoro-3b,4,4a,5-tetrahydro-1H-cyclopropa[3,4]cyclopenta[1,2-c]pyrazol-1-yl)acetamide] | 0.06 | > 100
Cn1nc(NS(C)(=O)=O)c2c(Cl)ccc(-n3c([C@H](Cc4cc(F)cc(F)c4)NC(=O)Cn4nc(C(F)F)c5c4C(F)(F)[C@@H]4C[C@H]54)nc4nc(OCC(F)(F)C(F)(F)C(F)(F)F)ccc4c3=O)c21 (atropisomer, axis not shown; (P)) [Example 39, N-((S)-1-((3P,3P)-3-(4-chloro-1-methyl-3-(methylsulfonamido)-1H-indazol-7-yl)-7-(2,2,3,3,4,4,4-heptafluorobutoxy)-4-oxo-3,4-dihydropyrido[2,3-d]pyrimidin-2-yl)-2-(3,5-difluorophenyl)ethyl)-2-((3bS,4aR)-3-(difluoromethyl)-5,5-difluoro-3b,4,4a,5-tetrahydro-1H-cyclopropa[3,4]cyclopenta[1,2-c]pyrazol-1-yl)acetamide] | 0.122 | > 100
COC1(CCOc2ccc3c(=O)n(-c4ccc(Cl)c5c(NS(C)(=O)=O)nn(C)c45)c([C@H](Cc4cc(F)cc(F)c4)NC(=O)Cn4nc(C(F)F)c5c4C(F)(F)[C@@H]4C[C@H]54)nc3n2)CCC1 (atropisomer, axis not shown; (P)) [Example 16, N-((S)-1-((3P,3P)-3-(4-chloro-1-methyl-3-(methylsulfonamido)-1H-indazol-7-yl)-7-(2-(1-methoxycyclobutyl)ethoxy)-4-oxo-3,4-dihydropyrido[2,3-d]pyrimidin-2-yl)-2-(3,5-difluorophenyl)ethyl)-2-((3bS,4aR)-3-(difluoromethyl)-5,5-difluoro-3b,4,4a,5-tetrahydro-1H-cyclopropa[3,4]cyclopenta[1,2-c]pyrazol-1-yl)acetamide] | 0.03 | > 100
Cn1nc(NS(C)(=O)=O)c2c(Cl)ccc(-n3c([C@H](Cc4cc(F)cc(F)c4)NC(=O)Cn4nc(C(F)F)c5c4C(F)(F)[C@@H]4C[C@H]54)nc4nc(OCC5CC(F)(F)C5)ccc4c3=O)c21 (atropisomer, axis not shown; (P)) [Example 31, N-((S)-1-((3P)-3-(4-chloro-1-methyl-3-(methylsulfonamido)-1H-indazol-7-yl)-7-((3,3-difluorocyclobutyl)methoxy)-4-oxo-3,4-dihydropyrido[2,3-d]pyrimidin-2-yl)-2-(3,5-difluorophenyl)ethyl)-2-((3bS,4aR)-3-(difluoromethyl)-5,5-difluoro-3b,4,4a,5-tetrahydro-1H-cyclopropa[3,4]cyclopenta[1,2-c]pyrazol-1-yl)acetamide] | 0.035 | > 100
Cn1nc(NS(C)(=O)=O)c2c(Cl)ccc(-n3c([C@H](Cc4cc(F)cc(F)c4)NC(=O)Cn4nc(C(F)F)c5c4C(F)(F)[C@@H]4C[C@H]54)nc4nc(OCCC5CC(F)(F)C5)ccc4c3=O)c21 (atropisomer, axis not shown; (P)) [Example 32, N-((S)-1-((3P,3P)-3-(4-chloro-1-methyl-3-(methylsulfonamido)-1H-indazol-7-yl)-7-(2-(3,3-difluorocyclobutyl)ethoxy)-4-oxo-3,4-dihydropyrido[2,3-d]pyrimidin-2-yl)-2-(3,5-difluorophenyl)ethyl)-2-((3bS,4aR)-3-(difluoromethyl)-5,5-difluoro-3b,4,4a,5-tetrahydro-1H-cyclopropa[3,4]cyclopenta[1,2-c]pyrazol-1-yl)acetamide] | – | > 100
